Experimental data reported in PubChem BioAssay AID256 (DTP/NCI, 2004).
“And” between values parts separate entries of the source, which are not always exact repeats. Equal values may be shown once. Inconclusive results and toxic doses are left out. How the source made its calls: active means survival T/C of 150% or more; inactive means T/C below 125% in these data.

System: CD2F1 mice, L1210 leukemia ip, survival T/C
Assay: NCI In Vivo Anticancer Drug Screen. Data for tumor model L1210 Leukemia (intraperitoneal) in CD2F1 (CDF1) mice
Settings: higher = longer survival
How it was run: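 In this screen, transplantable tumors were grown in mice given either the compound or its vehicle. Results were expressed as the treated measurement relative to the control measurement.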

[1] = endpoint: mean survival time, dose: 100.0 mg/kg/injection, schedule: Q04DX003 (ip), vehicle: saline with Tween-80
[2] = endpoint: mean survival time, dose: 200.0 mg/kg/injection, schedule: Q04DX003 (ip), vehicle: saline with Tween-80
[3] = endpoint: mean survival time, dose: 400.0 mg/kg/injection, schedule: Q04DX003 (ip), vehicle: saline with Tween-80
[4] = endpoint: mean survival time, dose: 100.0 mg/kg/injection, schedule: Q04DX003 (ip), vehicle: saline
[5] = endpoint: mean survival time, dose: 200.0 mg/kg/injection, schedule: Q04DX003 (ip), vehicle: saline
[6] = endpoint: mean survival time, dose: 400.0 mg/kg/injection, schedule: Q04DX003 (ip), vehicle: saline
[7] = endpoint: mean survival time, dose: 100.0 mg/kg/injection, schedule: Q04DX002 (ip), vehicle: saline with Tween-80
[8] = endpoint: mean survival time, dose: 200.0 mg/kg/injection, schedule: Q04DX002 (ip), vehicle: saline with Tween-80
[9] = endpoint: mean survival time, dose: 400.0 mg/kg/injection, schedule: Q04DX002 (ip), vehicle: saline with Tween-80
[10] = endpoint: mean survival time, dose: 200.0 mg/kg/injection, schedule: Q01DX009 (ip), vehicle: saline with Tween-80
[11] = endpoint: mean survival time, dose: 400.0 mg/kg/injection, schedule: Q01DX009 (ip), vehicle: saline with Tween-80
[12] = endpoint: mean survival time, dose: 100.0 mg/kg/injection, schedule: Q01DX009 (ip), vehicle: saline with Tween-80

Measured: T/C

CCOC(=O)CCCCCSc1nn(C2OC(COC(=O)c3ccccc3)C(OC(=O)c3ccccc3)C2OC(=O)c2ccccc2)c(=O)[nH]c1=O (stereo unspecified)
inactive: endpoint: mean survival time, dose: 12.5 mg/kg/injection, schedule: Q01DX005 (ip), vehicle: distilled water + Tween-80 101 % of control | endpoint: mean survival time, dose: 25.0 mg/kg/injection, schedule: Q01DX005 (ip), vehicle: distilled water + Tween-80 107 % of control | endpoint: mean survival time, dose: 50.0 mg/kg/injection, schedule: Q01DX005 (ip), vehicle: distilled water + Tween-80 95 % of control | endpoint: mean survival time, dose: 100.0 mg/kg/injection, schedule: Q01DX005 (ip), vehicle: distilled water + Tween-80 106 % of control | endpoint: mean survival time, dose: 200.0 mg/kg/injection, schedule: Q01DX005 (ip), vehicle: distilled water + Tween-80 107 % of control

C[N+](C)(C)/N=C/c1ccc(Cl)cc1
inactive: endpoint: mean survival time, dose: 50.0 mg/kg/injection, schedule: Q04DX002 (ip), vehicle: saline with Tween-80 93 % of control

CCCCCCCCCCCCCCCCSSCCCCCCCCCCCCCCCC
inactive: [1] 88 % of control | [2] 88 % of control | [3] 92 % of control

O=[N+]([O-])c1cccc(C[n+]2ccccc2C2OCCO2)c1
inactive: endpoint: mean survival time, dose: 6.25 mg/kg/injection, schedule: Q01DX009 (ip), vehicle: saline 101 % of control | endpoint: mean survival time, dose: 12.5 mg/kg/injection, schedule: Q01DX009 (ip), vehicle: saline 101 % of control | endpoint: mean survival time, dose: 12.5 mg/kg/injection, schedule: Q04DX003 (ip), vehicle: saline 104 % of control | endpoint: mean survival time, dose: 25.0 mg/kg/injection, schedule: Q01DX009 (ip), vehicle: saline 96 % of control | endpoint: mean survival time, dose: 25.0 mg/kg/injection, schedule: Q04DX003 (ip), vehicle: saline 114 % of control

CCOP(=O)(NCCCSC)OCC
inactive: endpoint: mean survival time, dose: 5.0 mg/kg/injection, schedule: Q01DX009 (ip), vehicle: saline 96 % of control | endpoint: mean survival time, dose: 10.0 mg/kg/injection, schedule: Q01DX009 (ip), vehicle: saline 97 % of control | endpoint: mean survival time, dose: 20.0 mg/kg/injection, schedule: Q01DX009 (ip), vehicle: saline 88 % of control

N/C(=N/N=C/c1cc(Br)cc(Br)c1O)NO
inactive: endpoint: median survival time, dose: 12.5 mg/kg/injection, schedule: Q01DX005 (ip), vehicle: suspension in saline 105 % of control | endpoint: median survival time, dose: 25.0 mg/kg/injection, schedule: Q01DX005 (ip), vehicle: suspension in saline 100 % of control | endpoint: median survival time, dose: 50.0 mg/kg/injection, schedule: Q01DX005 (ip), vehicle: suspension in saline 105 % of control | endpoint: median survival time, dose: 100.0 mg/kg/injection, schedule: Q01DX005 (ip), vehicle: suspension in saline 116 % of control

CSCS(=O)C[C@H](CO)NC(=O)/C=C/c1c(C)[nH]c(=O)[nH]c1=O (stereo partly specified)
inactive: endpoint: mean survival time, dose: 0.03 mg/kg/injection, schedule: Q01DX009 (ip), vehicle: saline 104 % of control | endpoint: mean survival time, dose: 0.06 mg/kg/injection, schedule: Q01DX009 (ip), vehicle: saline 103 % of control | endpoint: mean survival time, dose: 0.08 mg/kg/injection, schedule: Q01DX009 (ip), vehicle: water 105 % of control and 110 % of control | endpoint: mean survival time, dose: 0.13 mg/kg/injection, schedule: Q01DX009 (ip), vehicle: saline 101 % of control | endpoint: mean survival time, dose: 0.13 mg/kg/injection, schedule: Q01DX010 (ip), vehicle: saline 102 % of control and 111 % of control | endpoint: mean survival time, dose: 0.15 mg/kg/injection, schedule: Q01DX009 (ip), vehicle: water 115 % of control and 110 % of control | endpoint: mean survival time, dose: 0.25 mg/kg/injection, schedule: Q01DX009 (ip), vehicle: saline 115 % of control | endpoint: mean survival time, dose: 0.25 mg/kg/injection, schedule: Q01DX010 (ip), vehicle: saline 113 % of control and 114 % of control | endpoint: mean survival time, dose: 0.3 mg/kg/injection, schedule: Q01DX009 (ip), vehicle: water 116 % of control | endpoint: mean survival time, dose: 0.5 mg/kg/injection, schedule: Q01DX009 (ip), vehicle: saline 114 % of control | endpoint: mean survival time, dose: 0.5 mg/kg/injection, schedule: Q01DX010 (ip), vehicle: saline 119 % of control and 112 % of control | endpoint: mean survival time, dose: 0.6 mg/kg/injection, schedule: Q01DX009 (ip), vehicle: water 101 % of control | endpoint: mean survival time, dose: 1.0 mg/kg/injection, schedule: Q01DX010 (ip), vehicle: saline 108 % of control

CC(C)CCCC(C)C1C(O)CC2C3CCC4CC(O)CCC4(C)C3CCC21C (stereo unspecified)
inactive: endpoint: mean survival time, dose: 25.0 mg/kg/injection, schedule: Q01DX001 (ip), vehicle: saline with Tween-80 103 % of control | endpoint: mean survival time, dose: 50.0 mg/kg/injection, schedule: Q01DX001 (ip), vehicle: saline with Tween-80 95 % of control | endpoint: mean survival time, dose: 100.0 mg/kg/injection, schedule: Q01DX001 (ip), vehicle: saline with Tween-80 97 % of control

CCOP(=S)(NCCOC)OCC
inactive: [1] 101 % of control | [2] 101 % of control | [3] 100 % of control

COCCCNC(=O)C1=CCCN(C)C1
inactive: [4] 95 % of control | [5] 96 % of control | [6] 94 % of control

CNC(=O)OC
inactive: [4] 102 % of control | [5] 110 % of control | [6] 108 % of control

CC(=O)Nc1ccc(C(=O)c2ccc(C(=O)O)cc2)cc1
inactive: [7] 92 % of control and 98 % of control | [1] 95 % of control and 100 % of control | [8] 93 % of control and 96 % of control | [2] 104 % of control and 109 % of control | [9] 96 % of control and 107 % of control | [3] 114 % of control and 104 % of control

NC(=O)n1ccnc1
inactive: endpoint: mean survival time, dose: 50.0 mg/kg/injection, schedule: Q01DX001 (ip), vehicle: saline 96 % of control | endpoint: mean survival time, dose: 100.0 mg/kg/injection, schedule: Q01DX001 (ip), vehicle: saline 98 % of control | endpoint: mean survival time, dose: 200.0 mg/kg/injection, schedule: Q01DX001 (ip), vehicle: saline 108 % of control

COc1cnnc2ccccc12
inactive: [1] 104 % of control | [2] 103 % of control | [3] 92 % of control

Cc1ccc(S(=O)(=O)OCCCCOS(=O)(=O)c2ccc(C)cc2)cc1
inactive: endpoint: mean survival time, dose: 100.0 mg/kg/injection, schedule: Q04DX003 (ip), vehicle: other 105 % of control | endpoint: mean survival time, dose: 200.0 mg/kg/injection, schedule: Q04DX003 (ip), vehicle: other 94 % of control | endpoint: mean survival time, dose: 400.0 mg/kg/injection, schedule: Q04DX003 (ip), vehicle: other 96 % of control

NC(CSS(=O)(=O)O)=NCC1CCCCC1
inactive: endpoint: mean survival time, dose: 6.25 mg/kg/injection, schedule: Q04DX002 (ip), vehicle: saline with Tween-80 101 % of control and 107 % of control | endpoint: mean survival time, dose: 12.5 mg/kg/injection, schedule: Q04DX002 (ip), vehicle: saline with Tween-80 104 % of control and 112 % of control | endpoint: mean survival time, dose: 25.0 mg/kg/injection, schedule: Q04DX002 (ip), vehicle: saline with Tween-80 96 % of control

Cc1cc(Cc2ccc(N=C=O)c(C)c2)ccc1N=C=O
inactive: [1] 103 % of control | [10] 89 % of control | [2] 111 % of control | [11] 89 % of control | [3] 106 % of control

CCCc1cc(CCC)n2nc(N)nc2n1
inactive: [1] 96 % of control | [2] 94 % of control | [3] 94 % of control

N#Cc1ccc2cn[nH]c2c1
inactive: [12] 98 % of control | [10] 96 % of control | [11] 92 % of control

COC1CC(C)C(OC)c2cc(O)cc(c2O)NC(=O)/C(C)=C/C=C\C(C)C(OC(N)=O)/C(C)=C\C(C)C1OC (stereo unspecified)
inactive: endpoint: median survival time, dose: 1.25 mg/kg/injection, schedule: Q01DX009 (ip), vehicle: saline + alcohol 105 % of control | endpoint: median survival time, dose: 2.5 mg/kg/injection, schedule: Q01DX009 (ip), vehicle: saline + alcohol 105 % of control | endpoint: median survival time, dose: 5.0 mg/kg/injection, schedule: Q01DX009 (ip), vehicle: saline + alcohol 105 % of control | endpoint: median survival time, dose: 10.0 mg/kg/injection, schedule: Q01DX009 (ip), vehicle: saline + alcohol 110 % of control | endpoint: median survival time, dose: 20.0 mg/kg/injection, schedule: Q01DX009 (ip), vehicle: saline + alcohol 107 % of control

CC(=O)/C=C/c1ccc([N+](=O)[O-])cc1
inactive: endpoint: mean survival time, dose: 100.0 mg/kg/injection, schedule: Q04DX003 (ip), vehicle: saline sonified 102 % of control | endpoint: mean survival time, dose: 200.0 mg/kg/injection, schedule: Q04DX003 (ip), vehicle: saline sonified 102 % of control | endpoint: mean survival time, dose: 400.0 mg/kg/injection, schedule: Q04DX003 (ip), vehicle: saline sonified 95 % of control

CCCCC=C1CC(C)CCC(C)C1 (stereo unspecified)
inactive: [4] 101 % of control | [5] 104 % of control | [6] 104 % of control

CCOC(=O)/C(C#N)=C1/C=Cc2ccccc2N1
inactive: [12] 102 % of control | [1] 109 % of control | [10] 96 % of control | [2] 97 % of control | [11] 96 % of control | [3] 97 % of control

CCCCCCCCCCCCCCCCC/C=C1\CC(=O)OC1=O
inactive: [1] 88 % of control

COc1ccc([N+](=O)[O-])cc1NC(=O)Nc1ccccc1Cl
inactive: [7] 86 % of control | [8] 93 % of control | [9] 104 % of control
